US20260083864A1, “CONTRAST AGENTS FOR USE IN DIAGNOSTIC COMPUTED TOMOGRAPHY IMAGING” (Bayer Aktiengesellschaft, priority 2022, published 2026)

Experiments:
[1] = system: plasma proteins; experiment: Plasma protein binding, equilibrium dialysis, rat; format: in vitro ADME
From the text: (§1) The binding of Example 1 and 15 to plasma proteins of different species (human, dog, monkey, rabbit, mouse and rat) was investigated in vitro by using equilibrium dialysis in reusable 96-well Micro-Equilibrium Dialysis Devices (ht dialysis) (Banker M J et al. J Pharm Sci. 2003 May; 92 (5): 967-74).

[2] = Relaxivity measurements at 1.41 T in water; format: physicochemical; conditions: 37° C., normalized to Gd
In short: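 T1 by inversion recovery and T2 by CPMG at 1.41 T (60 MHz), 37° C, relaxation delay ≥5×T1. Three Gd concentrations between 0.05 and 2 mM; relaxivities derived from measured relaxation rates in water.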

[3] = Excretion study in rats (5 days) and residual gadolinium organ distribution (7 days); format: in vivo, rat; conditions: 0.1 mmol Gd/kg bw i.v.; for Σ organs and carcass [% Dose]: 7 d post injection
Description: The excretion and organ distribution of Example 1 and 15 were determined in male rats (Han-Wistar, n=3). The compound was administered as a sterile aqueous solution (50 mmol Gd/L) as a bolus in the tail vein of the animals. The dose was 0.1 mmol Gd/kg bw. Urine was collected in the following time periods 0-1 h, 1-3 h, 3-6 h, 6-24 h, 1-2d and 2-5d post injection […] and feces 0-1d, 1-2d and 2-5d post injection. As a control, 3 animals were treated in the same way with RC1. On day 7 the animals were sacrificed, and the following organs were excised: blood, liver, kidney, spleen, heart, lung, brain, muscle, skin, stomach, gut, bone and bone marrow. The remaining carcass was freeze dried and ground to a fine powder. The Gd concentration in the organs and the carcass was determined by ICP-MS (ICP-MS Agilent 7500a, Waldbronn, Germany). The compounds are excreted via dual pathway (liver and kidney). Less than 1% of the administered dose was present in the body 7 days after the injection.

[4] = Complex stability (transmetallation) against Zn2+ in phosphate buffer; conditions: 72 hours, 2.5 mM Zn^2+, 26 mM phosphate buffer, 37° C., pH 7.4
From the text: If test compounds are instable under these conditions, transmetallation during this test would lead to the formation of the Zn^2+ complex of the test item, while Gd^3+ is released and precipitated as highly insoluble GdPO4.

[5] = system: plasma proteins; experiment: Plasma protein binding, equilibrium dialysis, monkey; format: in vitro ADME
From the text: as §1

[6] = Water solubility in aqueous buffer; conditions: aqueous buffer 10 mM Tris-HCl, pH 7.4, 20° C.
Description: The solid compounds were added stepwise to the buffer solution. More substance is added once all the suspended material is dissolved until an equilibrium between undissolved and dissolved substance is reached. The suspension was mixed using a shaker (Heidolph Reax 2000) and treated 5 min in an ultrasound bath (Bandelin, Sonorex Super RK255H).

[7] = system: plasma proteins; experiment: Plasma protein binding, equilibrium dialysis, human; format: in vitro ADME
From the text: as §1

[8] = molecular target: T1, OATP1B1 (Homo sapiens, UniProt Q9Y6L6); experiment: Uptake into stable transfected OATP1B1 HEK 293 cells; format: cell-based; conditions: for Uptake into OATP1B1-HEK 293 cells: 40 min incubation, relative to RC1 (Gd-EOB-DTPA); for Inhibition Rifampicine: uptake into OATP1B1-HEK 293 cells
T1 sequence (Q9Y6L6 1-691): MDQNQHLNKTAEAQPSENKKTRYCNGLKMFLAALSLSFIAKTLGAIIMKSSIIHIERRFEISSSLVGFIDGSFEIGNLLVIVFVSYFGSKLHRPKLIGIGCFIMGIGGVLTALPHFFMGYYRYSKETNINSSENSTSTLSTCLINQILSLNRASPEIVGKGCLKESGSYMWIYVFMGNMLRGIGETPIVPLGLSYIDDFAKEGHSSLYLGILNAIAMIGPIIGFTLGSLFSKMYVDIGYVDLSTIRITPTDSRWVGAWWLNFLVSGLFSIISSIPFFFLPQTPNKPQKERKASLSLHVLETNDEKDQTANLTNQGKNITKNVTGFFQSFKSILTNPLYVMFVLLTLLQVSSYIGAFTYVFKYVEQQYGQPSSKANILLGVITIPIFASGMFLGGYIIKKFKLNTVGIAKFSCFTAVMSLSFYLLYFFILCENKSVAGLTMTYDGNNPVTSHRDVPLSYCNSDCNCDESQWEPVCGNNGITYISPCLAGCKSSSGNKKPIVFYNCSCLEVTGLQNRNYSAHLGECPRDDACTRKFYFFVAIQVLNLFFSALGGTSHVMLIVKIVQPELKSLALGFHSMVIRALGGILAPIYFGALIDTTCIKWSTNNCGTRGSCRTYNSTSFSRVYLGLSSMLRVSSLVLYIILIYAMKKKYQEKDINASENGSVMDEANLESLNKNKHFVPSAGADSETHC
In short: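 Stably transfected OATP1B1 HEK293 cells incubated 40 min without shaking with test item at 100 µM final in transport buffer, in triplicate. Cells then washed with cold PBS; gadoxetate run on the same plate as reference.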

## CCOc1ccc(CCOCC(C(=O)O)N2CCN(CC(=O)[O-])CCN(CC(=O)[O-])CCN(CC(=O)[O-])CC2)cc1.[Gd+3] (stereo not drawn) [Example 1, gadolinium 2,2′,2″-(10-{1-carboxy-2-[2-(4-ethoxyphenyl)ethoxy]ethyl}-1,4,7,10-tetraazacyclododecane-1,4,7-triyl)triacetate]
[1]
  Fraction unbound fu: 92%
[2]
  r1 water: 4.1 L/mmol/s
[3]
  Total recovery [% Dose]: 98.6 ± 2.1%
  Σ organs and carcass [% Dose]: 0.65 ± 0.07%
[3]; 0-1 h post injection
  Excretion in urine [% Dose]: 39.8 ± 6.8%
[3]; 0-1 d post injection
  Excretion in feces [% Dose]: 55.6 ± 5.6%
[3]; 1-3 h post injection
  Excretion in urine [% Dose]: 40.3 ± 6.8%
[3]; 1-2 d post injection
  Excretion in feces [% Dose]: 56.9 ± 6.6%
  Excretion in urine [% Dose]: 40.9 ± 7.4%
[3]; 2-5 d post injection
  Excretion in feces [% Dose]: 57.0 ± 6.6%
  Excretion in urine [% Dose]: 40.9 ± 7.4%
[3]; 3-6 h post injection
  Excretion in urine [% Dose]: 40.3 ± 6.8%
[3]; 6-24 h post injection
  Excretion in urine [% Dose]: 40.8 ± 7.4%
[4]
  Transmetallation stability: 99%
[5]
  Fraction unbound fu: 94%
[6]
  Solubility: >258 mM
[7]
  Fraction unbound fu: 99%
[8]
  Uptake into OATP1B1-HEK 293 cells: 187 % of RC1
  Inhibition Rifampicine: 92 % inhibition

## CCOCCOCCOc1ccc(CC(C(=O)O)N2CCN(CC(=O)[O-])CCN(CC(=O)[O-])CCN(CC(=O)[O-])CC2)cc1.[Gd+3] (stereo not drawn) [Example 2, gadolinium 2,2′,2″-{10-[1-carboxy-2-{4-[2-(2-ethoxyethoxy)ethoxy]phenyl}ethyl]-1,4,7,10-tetraazacyclododecane-1,4,7-triyl}triacetate]
[1]
  Fraction unbound fu: >95%
[2]
  r1 water: 4.4 L/mmol/s
[4]
  Transmetallation stability: 100%
[5]
  Fraction unbound fu: >95%
[6]
  Solubility: >757 mM
[7]
  Fraction unbound fu: >95%
[8]
  Uptake into OATP1B1-HEK 293 cells: 324 % of RC1
  Inhibition Rifampicine: 45 % inhibition

## CCOCCOCCOc1ccc(CCC[C@@H](C(=O)O)N2CCN([C@@H](CO)C(=O)[O-])CCN([C@@H](CO)C(=O)[O-])CCN([C@@H](CO)C(=O)[O-])CC2)cc1.[Gd+3] [Example 15, gadolinium (2S,2′S,2″S)-2,2′,2″-{10-[(1S)-1-carboxy-4-{4-[2-(2-ethoxyethoxy)ethoxy]phenyl}butyl]-1,4,7,10-tetraazacyclododecane-1,4,7-triyl}tris(3-hydroxypropanoate)]
[1]
  Fraction unbound fu: 71%
[2]
  r1 water: 5.1 L/mmol/s
[3]
  Total recovery [% Dose]: 97.9 ± 5.4%
  Σ organs and carcass [% Dose]: 0.11 ± 0.03%
[3]; 0-1 h post injection
  Excretion in urine [% Dose]: 12.6 ± 11.1%
[3]; 0-1 d post injection
  Excretion in feces [% Dose]: 78.6 ± 6.2%
[3]; 1-3 h post injection
  Excretion in urine [% Dose]: 17.3 ± 3.4%
[3]; 1-2 d post injection
  Excretion in feces [% Dose]: 80.0 ± 5.3%
  Excretion in urine [% Dose]: 17.7 ± 3.3%
[3]; 2-5 d post injection
  Excretion in feces [% Dose]: 80.0 ± 5.3%
  Excretion in urine [% Dose]: 17.7 ± 3.3%
[3]; 3-6 h post injection
  Excretion in urine [% Dose]: 17.4 ± 3.3%
[3]; 6-24 h post injection
  Excretion in urine [% Dose]: 17.6 ± 3.3%
[4]
  Transmetallation stability: 101%
[5]
  Fraction unbound fu: 88%
[6]
  Solubility: >500 mM
[7]
  Fraction unbound fu: 86%
[8]
  Inhibition Rifampicine: 91 % inhibition

## CCOc1ccc(CC(CN(CCN(CC(=O)[O-])CC(=O)[O-])CC(=O)[O-])N(CC(=O)[O-])CC(=O)[O-])cc1.[Gd+3].[Na+].[Na+] (stereo not drawn) [RC1, gadoxetate disodium, reference compound]
[3]
  Total recovery [% Dose]: 104.6 ± 2.4%
  Σ organs and carcass [% Dose]: 0.14 ± 0.08%
[3]; 0-1 h post injection
  Excretion in urine [% Dose]: 23.2 ± 1.6%
[3]; 0-1 d post injection
  Excretion in feces [% Dose]: 77.5 ± 2.7%
[3]; 1-3 h post injection
  Excretion in urine [% Dose]: 23.5 ± 1.5%
[3]; 1-2 d post injection
  Excretion in feces [% Dose]: 80.6 ± 2.9%
  Excretion in urine [% Dose]: 23.7 ± 1.5%
[3]; 2-5 d post injection
  Excretion in feces [% Dose]: 80.8 ± 2.9%
  Excretion in urine [% Dose]: 23.7 ± 1.5%
[3]; 3-6 h post injection
  Excretion in urine [% Dose]: 23.6 ± 1.5%
[3]; 6-24 h post injection
  Excretion in urine [% Dose]: 23.7 ± 1.5%
[4]
  Transmetallation stability: 44%
[6]
  Solubility: >250 mM
[8]
  Uptake into OATP1B1-HEK 293 cells: 100 % of RC1
  Inhibition Rifampicine: 81 % inhibition
